Our source for the viability, T/C and IC50 values is PubChem BioAssay AID2060491 (Molecular Pharmacology Branch, DTP, NCI, 2025).

The experiment deals with 857933-349-R-J2-PDC complex spheroids, viability. The experiment is described as follows: Anticancer human tumor 857933-349-R-J2-PDC patient-derived colon adenocarcinoma cell line growth inhibition [GQUAD]. The conditions noted are these: for viability, T/C: stronger effect = lower value. An excerpt:
DNA G-quadruplex Stabilizer Agents in Combinations in Complex Spheroids
A high-throughput screen of multi-cell type tumor spheroids was designed to identify active combinations of DNA G-quadruplex stabilizer agents and targeted small molecules. Complex spheroids include a stromal component modeled by human endothelial cells (HUVEC) and fibroblasts modeled by human mesenchymal stem cells (MSCs). The concentration ranges selected for each drug and investigational agent were based upon clinically achievable concentrations if the clinical Cmax of the agent was known.
Compounds. The drugs and investigational agents: pidnarulex (CX-5461; NSC782164), APTO-253 (NSC789042), BRACO-19 (NSC847499), peposertib (NSC802822), ceralasertib (NSC780249), elimusertib (NSC800525), camonsertib (NSC841442), AZD-1390 (NSC803789), olaparib (NSC753686), talazoparib (NSC767125), ART-558 (NSC835418), sotorasib (NSC818433), MRTX-1133 (NSC836407), SN-38 (NSC673596), topotecan (NSC609699), etoposide (NSC141540), doxorubicin (NSC123127), gemcitabine (NSC613327), 5-fluorouracil (NSC19893), paclitaxel (NSC125973), vemurafenib (NSC761431), panobinostat (NSC761190), R-306465 (JNJ-16241199; NSC773264), adavosertib (NSC754352), TP-3654 (NSC805149), carboplatin (NSC241240), KSQ-4279 (NSC840948), and staurosporine (NSC755774) were obtained from the National Cancer Institute (NCI) Developmental Therapeutics Program Chemical Repository (34). The FDA-approved anticancer drug set is available from the NCI Developmental Therapeutics Program. […] The stock solutions were prepared in dimethyl sulfoxide (DMSO, Sigma-Aldrich, St. Louis, MO, cat. D2650) at 800-fold the tested concentration and stored at -70 degrees C prior to their use. All drugs and investigational agents were tested over a range starting from a high concentration at or near the clinical Cmax and decreasing in half-log increments. If the clinical Cmax for an agent had not been determined, the highest concentration tested was 10 microM.
2.3 Cell Culture. All cells were maintained in an incubator at 37 degrees C and 5% CO2 with 95% humidity. The PDC lines were cultured according to standard operating procedures established by the NCI PDMR. All PDCs were thawed and cultured in Matrigel-coated flasks prepared with a working solution of 1X Ham's F-12 nutrient mix, without supplementation (Invitrogen, cat. 11765054), 100 U/mL penicillin-streptomycin (Invitrogen, cat. 15140122), and 2.5% Matrigel (Corning Inc., cat. 354248) for the first three passages. The 857933-349-R-J2-PDC line was cultured in 6C/Colon 1B media, which includes advanced DMEM/F-12 (Thermo Fisher Scientific, cat. 12634028), 10 mM HEPES (Thermo Fisher Scientific, cat. 15630080), 1X GlutaMAX supplement (Thermo Fisher Scientific, cat. 35050061), 0.1 mg/mL primocin (InvivoGen, cat. ant-pm-2), 10% defined fetal bovine serum, heat inactivated (HyClone Laboratories Inc., cat. SH30070.03HI), 50% L-WRN conditioned media (ATCC, cat. CRL-3276), 1.25 mM N-Acetyl-L-cysteine (Sigma-Aldrich, cat. A9165), 10 mM nicotinamide (Sigma-Aldrich, cat. N0636), 1X B-27 supplement (Thermo Fisher Scientific, cat. 17504044), 1X N-2 supplement (Thermo Fisher Scientific, cat. 17502048), 10 microM Y-27632 dihydrochloride (Tocris Bioscience, cat. 1254), and 50 ng/mL human EGF recombinant protein (Thermo Fisher Scientific, cat. PHG0311). The 485176-168-R4-J1-PDC line was cultured in Panc media, which includes all 6C/Colon 1B media components plus 100 ng/mL human FGF-10 (Thermo Fisher Scientific, cat. 100-26), 500 nM SB-431542 (Selleckchem, cat. S1067), and gastrin (Tocris, cat. 3006).
[…]

Where “and” joins values, the source holds several entries; their conditions need not be identical. Equal values may be shown once.
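Note: spheroids exposed to compounds for one week before readout.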
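Throughout, for viability, T/C: percent viability relative to vehicle DMSO wells taken as 100%.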

In general, viability, T/C refers to the ratio of treated to control. The IC50 is the concentration at which inhibition is half-maximal. As to `C=CC(=O)N1CCN(c2nc(=O)n(-c3c(C)ccnc3C(C)C)c3nc(-c4c(O)cccc4F)c(F)cc23)C(C)C1` (configuration not stated), the viability, T/C runs as follows: (compound 0.0316 µM) 106% and 112% and 111%; (compound 0.1 µM) 94.1% and 102% and 90.6%; (compound 0.316 µM) 100% and 107% and 103%; (compound 1 µM) 102% and 110% and 106%; (compound 3.16 µM) 107% (2×) and 108%; (compound 10 µM) 90.5% and 111% and 101%. Moreover, the IC50 (curve of compound) is above 10 µM.

Take `CC(=O)O[C@H]1C(=O)[C@@]2(C)[C@H]([C@H](OC(=O)c3ccccc3)[C@]3(O)C[C@H](OC(=O)[C@H](O)[C@@H](NC(=O)c4ccccc4)c4ccccc4)C(C)=C1C3(C)C)[C@]1(OC(C)=O)CO[C@@H]1C[C@@H]2O`: the viability, T/C runs as follows: (compound 0.0316 µM) 52.5% and 76.2% and 43.1%; (compound 0.1 µM) 16.1% (2×) and 36.9%; (compound 0.316 µM) 11.9% and 21.4% and 7.97%; (compound 1 µM) 13.3% and 23.7% and 9.54%; (compound 3.16 µM) 12% and 23.8% and 9%; (compound 10 µM) 13.6% and 25.8% and 10.8%. Also, the IC50 (curve of compound) is 0.0342 µM and 0.0682 µM and < 0.0316 µM.

For the compound `CC(C)n1c(=O)n(C)c2cnc3cc(F)c(-c4ccc(OCCCN5CCCCC5)nc4)cc3c21`, the viability, T/C is, setting by setting: (compound 0.0316 µM) 105% and 109% (2×); (compound 0.1 µM) 101% and 106% and 90.6%; (compound 0.316 µM) 104% and 109% and 108%; (compound 1 µM) 98.6% and 103% and 99.5%; (compound 3.16 µM) 104% and 110% and 107%; (compound 10 µM) 78.2% and 107% and 72.4%. The IC50 (curve of compound) was above 10 µM.

For `CC1COCCN1c1cc(-c2ccnn2C)c2ccnc(-c3ccn[nH]3)c2n1` (configuration not stated), the viability, T/C (compound 0.0316 µM) was 75.8% and 95.2% and 75.5%; the viability, T/C (compound 0.1 µM) is 52.4% and 84.3% and 52.1%; the viability, T/C (compound 0.316 µM) is 50.2% and 75.8% and 40.3%; the viability, T/C (compound 1 µM) is 46.9% and 63.2% and 44.1%; the viability, T/C (compound 3.16 µM) was 55.8% and 55.3% and 45.5%; the viability, T/C (compound 10 µM) is 51.8% and 61.9% and 43.6%.

Take `CC1COCCN1c1cc(C2(O)CC3CCC(C2)O3)c2cnn(-c3ccn[nH]3)c2n1` (configuration not stated): the viability, T/C by setting is: (compound 0.0316 µM) 68.6% and 76.9% and 98%; (compound 0.1 µM) 52% and 53% and 88.7%; (compound 0.316 µM) 43.7% and 48.3% and 77.2%; (compound 1 µM) 38.1% and 42% and 63.5%; (compound 3.16 µM) 46.3% and 45.1% and 55.5%; (compound 10 µM) 37.5% and 47.3% and 50.1%.

Turning to `CC1COCCN1c1cc(C2(S(C)(=N)=O)CC2)nc(-c2ccnc3[nH]ccc23)n1` (configuration not stated), the viability, T/C by setting is: (compound 0.0316 µM) 107% and 106% and 99%; (compound 0.1 µM) 96.8% and 99.1% and 94.2%; (compound 0.316 µM) 96.2% and 105% and 84.3%; (compound 1 µM) 68.3% and 92.9% and 61.6%; (compound 3.16 µM) 57.1% and 82.2% and 48.8%; (compound 10 µM) 47% and 65.2% and 39.2%. Besides, under “curve of compound”, the IC50 was 7.38 µM and > 10 µM and 2.57 µM.

For the compound `CC[C@@]1(O)C(=O)OCc2c1cc1n(c2=O)Cc2cc3c(CN(C)C)c(O)ccc3nc2-1`, the viability, T/C was 98.7% and 105% and 103% (compound 0.000999 µM); 82.7% and 104% and 89% (compound 0.00316 µM); 92.6% and 97.9% and 98.2% (compound 0.00999 µM); 70.4% and 96.6% and 71.6% (compound 0.0316 µM); 52.3% and 67.8% and 57.9% (compound 0.0999 µM); 40.8% and 48.1% and 34.1% (compound 0.316 µM). Moreover, the IC50 (curve of compound) was 0.115 µM and 0.282 µM and 0.138 µM.

With `CCc1c2c(nc3ccc(O)cc13)-c1cc3c(c(=O)n1C2)COC(=O)[C@]3(O)CC`, the viability, T/C by setting is: (compound 0.000999 µM) 85.5% and 93.5% and 77.5%; (compound 0.00316 µM) 48.9% and 84.5% and 50.1%; (compound 0.00999 µM) 50% and 57.4% and 48.4%; (compound 0.0316 µM) 28% and 35.3% and 21.5%; (compound 0.0999 µM) 15.3% and 20.7% and 13%; (compound 0.316 µM) 11.9% and 6.62% and 10.2%. The IC50 (curve of compound) was 0.00562 µM and 0.016 µM and 0.00484 µM.

As for `CN(C)c1ccc(Nc2c3ccc(NC(=O)CCN4CCCC4)cc3nc3cc(NC(=O)CCN4CCCC4)ccc23)cc1`, the viability, T/C runs as follows: (compound 0.0316 µM) 104% [middle of 12 runs]; (compound 0.1 µM) 105% [middle of 12 runs]; (compound 0.316 µM) 106% [middle of 12 runs]; (compound 1 µM) 103% [middle of 12 runs]; (compound 3.16 µM) 88.4% [middle of 12 runs]; (compound 10 µM) 74.7% [middle of 12 runs]. Further, the IC50 (compound alone, run of 02/26/2024) was above 10 µM.

With `COc1cc(C2c3cc4c(cc3C(OC3OC5COC(C)OC5C(O)C3O)C3COC(=O)C23)OCO4)cc(OC)c1O` (configuration not stated), the viability, T/C reads like this: (compound 0.0316 µM) 86.8% and 82.9% and 104%; (compound 0.1 µM) 53.1% and 58.3% and 93.6%; (compound 0.316 µM) 55.8% and 48.1% and 82.6%; (compound 1 µM) 48.6% and 52.9% and 78.4%; (compound 3.16 µM) 42.6% and 39.1% and 59.5%; (compound 10 µM) 27.6% and 27.1% and 41.6%.
